Values belong to the compound of their own block, whether it stands above or below them. The source made the active and inactive calls.
Experiments:
[1] = molecular target: T1, Acyl-homoserine lactone acylase PvdQ (Pseudomonas aeruginosa (strain LESB58), UniProt Q9I194); experiment: PvdQ acylase enzyme activity blockers – biochemical, fluorescence, plate reader and imaging, cherry-picks, dose response (AID 493231)
T1 sequence (Q9I194 whole entry): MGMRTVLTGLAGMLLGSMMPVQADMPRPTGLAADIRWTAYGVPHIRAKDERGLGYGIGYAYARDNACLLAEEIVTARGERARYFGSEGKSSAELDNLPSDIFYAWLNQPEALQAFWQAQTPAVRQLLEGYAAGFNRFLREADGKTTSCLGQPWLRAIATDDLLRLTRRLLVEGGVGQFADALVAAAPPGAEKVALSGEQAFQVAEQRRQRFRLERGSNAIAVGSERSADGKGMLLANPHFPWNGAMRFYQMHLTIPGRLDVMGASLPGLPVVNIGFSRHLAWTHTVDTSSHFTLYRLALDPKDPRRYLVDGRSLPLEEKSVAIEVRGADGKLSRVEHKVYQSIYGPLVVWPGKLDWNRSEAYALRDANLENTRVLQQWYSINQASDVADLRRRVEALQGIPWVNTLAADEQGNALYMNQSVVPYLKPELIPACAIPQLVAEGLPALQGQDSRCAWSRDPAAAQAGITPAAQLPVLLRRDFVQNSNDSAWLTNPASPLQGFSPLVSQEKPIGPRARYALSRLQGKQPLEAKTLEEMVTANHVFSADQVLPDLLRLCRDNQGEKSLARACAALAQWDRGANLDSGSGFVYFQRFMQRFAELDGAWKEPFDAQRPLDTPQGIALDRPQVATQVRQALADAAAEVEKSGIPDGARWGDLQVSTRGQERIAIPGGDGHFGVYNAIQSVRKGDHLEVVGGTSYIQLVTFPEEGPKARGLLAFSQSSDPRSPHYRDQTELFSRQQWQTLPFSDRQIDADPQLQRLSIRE

[2] = molecular target: T2, Short transient receptor potential channel 4 (Mus musculus, UniProt Q9QUQ5); experiment: calcium entry via TRPC4 opening agents – cell-based, HEK293 TRPC4/mu-opioid, Fluo-4 calcium, dose response (AID 434937); assay type: functional
T2 sequence (Q9QUQ5 whole entry): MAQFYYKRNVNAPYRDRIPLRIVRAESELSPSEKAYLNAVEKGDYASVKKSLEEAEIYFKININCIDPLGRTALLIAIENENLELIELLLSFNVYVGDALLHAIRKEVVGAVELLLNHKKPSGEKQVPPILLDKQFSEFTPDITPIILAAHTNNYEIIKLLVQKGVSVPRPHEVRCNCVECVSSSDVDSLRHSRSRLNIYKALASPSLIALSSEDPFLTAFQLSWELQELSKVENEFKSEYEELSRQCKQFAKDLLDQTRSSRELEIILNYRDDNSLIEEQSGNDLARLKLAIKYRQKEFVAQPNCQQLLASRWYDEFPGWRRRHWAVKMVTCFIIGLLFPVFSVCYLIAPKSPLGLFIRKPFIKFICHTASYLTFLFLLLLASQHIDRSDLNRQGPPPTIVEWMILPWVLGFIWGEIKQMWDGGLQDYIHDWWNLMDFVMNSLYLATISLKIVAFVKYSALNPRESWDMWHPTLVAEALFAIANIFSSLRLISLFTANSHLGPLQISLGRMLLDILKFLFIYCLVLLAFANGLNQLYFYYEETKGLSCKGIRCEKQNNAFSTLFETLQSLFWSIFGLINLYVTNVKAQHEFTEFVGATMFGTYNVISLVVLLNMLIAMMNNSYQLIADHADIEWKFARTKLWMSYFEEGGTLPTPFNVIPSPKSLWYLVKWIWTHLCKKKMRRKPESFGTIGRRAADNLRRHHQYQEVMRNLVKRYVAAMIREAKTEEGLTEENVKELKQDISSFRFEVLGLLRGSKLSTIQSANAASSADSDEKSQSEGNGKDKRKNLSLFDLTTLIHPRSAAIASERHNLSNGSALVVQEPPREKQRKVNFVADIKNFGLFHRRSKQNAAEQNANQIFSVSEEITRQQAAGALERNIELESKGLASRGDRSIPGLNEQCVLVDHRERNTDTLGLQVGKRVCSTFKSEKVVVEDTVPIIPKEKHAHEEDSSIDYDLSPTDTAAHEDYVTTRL

Estrogen receptor beta [3] = molecular target: T3, Estrogen receptor beta (Homo sapiens, UniProt Q92731); experiment: blockers of SRC-3 recruitment to ERβ – biochemical, ELISA, streptavidin-HRP readout, orthogonal assay, confirmation (AID 1060)
T3 sequence (Q92731 whole entry): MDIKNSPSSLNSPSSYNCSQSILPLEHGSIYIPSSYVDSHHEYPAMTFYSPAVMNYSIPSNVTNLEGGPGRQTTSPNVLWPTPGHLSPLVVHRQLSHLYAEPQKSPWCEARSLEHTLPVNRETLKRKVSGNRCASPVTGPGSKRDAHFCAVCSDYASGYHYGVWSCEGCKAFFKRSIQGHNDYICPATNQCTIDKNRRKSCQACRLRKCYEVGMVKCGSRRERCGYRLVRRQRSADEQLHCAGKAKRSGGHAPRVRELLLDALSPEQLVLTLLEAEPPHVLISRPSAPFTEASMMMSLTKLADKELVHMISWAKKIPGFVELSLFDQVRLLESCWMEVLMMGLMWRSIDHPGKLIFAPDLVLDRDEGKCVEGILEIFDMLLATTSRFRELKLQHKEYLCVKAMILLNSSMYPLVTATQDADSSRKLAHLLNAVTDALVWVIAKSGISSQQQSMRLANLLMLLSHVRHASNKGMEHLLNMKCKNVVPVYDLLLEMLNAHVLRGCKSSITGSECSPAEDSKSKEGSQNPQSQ

Troponin, cardiac muscle = Troponin, cardiac muscle (Homo sapiens, UniProt P19429+P45379+P63316); experiment: Fluorescence-based biochemical high throughput dose response assay for activators of the calcium sensitivity of cardiac Regulated Thin Filaments (RTF). [Related pubchem assays (depositor defined):AID493008, AID493018, AID504382, AID504383]; assay type: protein-complex assay
Estrogen receptor = molecular target: T4, Estrogen receptor (Homo sapiens, UniProt P03372);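 note: potency for inhibiting coactivator peptide recruitment to the receptor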
T4 sequence (P03372 whole entry): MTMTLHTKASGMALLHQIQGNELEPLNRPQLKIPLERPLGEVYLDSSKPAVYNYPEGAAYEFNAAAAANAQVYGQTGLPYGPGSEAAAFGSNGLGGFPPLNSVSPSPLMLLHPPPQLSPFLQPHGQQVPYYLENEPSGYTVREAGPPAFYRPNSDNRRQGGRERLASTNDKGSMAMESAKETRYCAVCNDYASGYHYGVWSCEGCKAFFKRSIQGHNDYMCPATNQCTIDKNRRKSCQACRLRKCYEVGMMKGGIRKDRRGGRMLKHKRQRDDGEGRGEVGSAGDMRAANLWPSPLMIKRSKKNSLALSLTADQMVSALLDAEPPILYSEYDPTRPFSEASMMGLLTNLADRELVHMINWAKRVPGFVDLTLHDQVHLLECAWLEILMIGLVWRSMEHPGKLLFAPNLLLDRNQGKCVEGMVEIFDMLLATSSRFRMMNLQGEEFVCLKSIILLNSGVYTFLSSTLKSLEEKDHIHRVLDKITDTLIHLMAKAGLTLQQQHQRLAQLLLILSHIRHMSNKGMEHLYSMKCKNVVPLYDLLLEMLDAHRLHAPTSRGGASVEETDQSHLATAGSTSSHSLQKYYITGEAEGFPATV

Estrogen receptor beta [4] = molecular target: T3, Estrogen receptor beta
[5] = molecular target: T5, High affinity choline transporter 1 (Homo sapiens, UniProt Q9GZV3); experiment: human choline transporter blockers, potency – cell-based, 5-point CRC, membrane potential dye, dose response (AID 504840); assay type: functional
T5 sequence (Q9GZV3 whole entry): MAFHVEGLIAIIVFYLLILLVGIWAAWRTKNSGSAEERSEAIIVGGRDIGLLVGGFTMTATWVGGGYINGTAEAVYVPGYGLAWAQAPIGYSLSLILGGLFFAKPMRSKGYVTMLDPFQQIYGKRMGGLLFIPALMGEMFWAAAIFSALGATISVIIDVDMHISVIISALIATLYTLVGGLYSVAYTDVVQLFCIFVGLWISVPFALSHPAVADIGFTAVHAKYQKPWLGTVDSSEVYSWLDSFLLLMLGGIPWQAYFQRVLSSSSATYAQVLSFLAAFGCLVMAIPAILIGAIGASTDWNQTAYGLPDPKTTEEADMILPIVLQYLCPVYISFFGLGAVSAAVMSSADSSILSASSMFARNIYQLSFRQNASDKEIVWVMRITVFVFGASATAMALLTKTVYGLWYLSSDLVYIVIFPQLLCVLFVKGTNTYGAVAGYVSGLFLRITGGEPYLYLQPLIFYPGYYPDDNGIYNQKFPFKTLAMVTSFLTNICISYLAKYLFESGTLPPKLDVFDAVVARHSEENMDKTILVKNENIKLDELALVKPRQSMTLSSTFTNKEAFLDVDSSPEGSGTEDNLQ

[6] = viability of HCT116 lacking mutant beta-catenin – cell-based, human colon tumor, dose response (AID 1045); assay type: functional;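 note: HCT116 colon tumor cells with beta catenin knocked out; cells exposed to compound for 60 hours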
[7] = viability of PTEN-deleted HCT116 cells – cell-based, HCT116 PTEN knockout, dose response (AID 1047); assay type: functional;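 note: HCT116 colon tumor cells with PTEN knocked out; cells exposed to compound for 60 hours before readout; potency for loss of cell viability measured by luminescence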
[8] = molecular target: Voltage-dependent T-type calcium channel subunit alpha-1H (Homo sapiens, UniProt O95180); assay type: functional;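 note: channel activity triggered by adding a high calcium stimulation buffer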
Voltage-dependent T-type calcium channel subunit alpha-1H, sequence (O95180 whole entry): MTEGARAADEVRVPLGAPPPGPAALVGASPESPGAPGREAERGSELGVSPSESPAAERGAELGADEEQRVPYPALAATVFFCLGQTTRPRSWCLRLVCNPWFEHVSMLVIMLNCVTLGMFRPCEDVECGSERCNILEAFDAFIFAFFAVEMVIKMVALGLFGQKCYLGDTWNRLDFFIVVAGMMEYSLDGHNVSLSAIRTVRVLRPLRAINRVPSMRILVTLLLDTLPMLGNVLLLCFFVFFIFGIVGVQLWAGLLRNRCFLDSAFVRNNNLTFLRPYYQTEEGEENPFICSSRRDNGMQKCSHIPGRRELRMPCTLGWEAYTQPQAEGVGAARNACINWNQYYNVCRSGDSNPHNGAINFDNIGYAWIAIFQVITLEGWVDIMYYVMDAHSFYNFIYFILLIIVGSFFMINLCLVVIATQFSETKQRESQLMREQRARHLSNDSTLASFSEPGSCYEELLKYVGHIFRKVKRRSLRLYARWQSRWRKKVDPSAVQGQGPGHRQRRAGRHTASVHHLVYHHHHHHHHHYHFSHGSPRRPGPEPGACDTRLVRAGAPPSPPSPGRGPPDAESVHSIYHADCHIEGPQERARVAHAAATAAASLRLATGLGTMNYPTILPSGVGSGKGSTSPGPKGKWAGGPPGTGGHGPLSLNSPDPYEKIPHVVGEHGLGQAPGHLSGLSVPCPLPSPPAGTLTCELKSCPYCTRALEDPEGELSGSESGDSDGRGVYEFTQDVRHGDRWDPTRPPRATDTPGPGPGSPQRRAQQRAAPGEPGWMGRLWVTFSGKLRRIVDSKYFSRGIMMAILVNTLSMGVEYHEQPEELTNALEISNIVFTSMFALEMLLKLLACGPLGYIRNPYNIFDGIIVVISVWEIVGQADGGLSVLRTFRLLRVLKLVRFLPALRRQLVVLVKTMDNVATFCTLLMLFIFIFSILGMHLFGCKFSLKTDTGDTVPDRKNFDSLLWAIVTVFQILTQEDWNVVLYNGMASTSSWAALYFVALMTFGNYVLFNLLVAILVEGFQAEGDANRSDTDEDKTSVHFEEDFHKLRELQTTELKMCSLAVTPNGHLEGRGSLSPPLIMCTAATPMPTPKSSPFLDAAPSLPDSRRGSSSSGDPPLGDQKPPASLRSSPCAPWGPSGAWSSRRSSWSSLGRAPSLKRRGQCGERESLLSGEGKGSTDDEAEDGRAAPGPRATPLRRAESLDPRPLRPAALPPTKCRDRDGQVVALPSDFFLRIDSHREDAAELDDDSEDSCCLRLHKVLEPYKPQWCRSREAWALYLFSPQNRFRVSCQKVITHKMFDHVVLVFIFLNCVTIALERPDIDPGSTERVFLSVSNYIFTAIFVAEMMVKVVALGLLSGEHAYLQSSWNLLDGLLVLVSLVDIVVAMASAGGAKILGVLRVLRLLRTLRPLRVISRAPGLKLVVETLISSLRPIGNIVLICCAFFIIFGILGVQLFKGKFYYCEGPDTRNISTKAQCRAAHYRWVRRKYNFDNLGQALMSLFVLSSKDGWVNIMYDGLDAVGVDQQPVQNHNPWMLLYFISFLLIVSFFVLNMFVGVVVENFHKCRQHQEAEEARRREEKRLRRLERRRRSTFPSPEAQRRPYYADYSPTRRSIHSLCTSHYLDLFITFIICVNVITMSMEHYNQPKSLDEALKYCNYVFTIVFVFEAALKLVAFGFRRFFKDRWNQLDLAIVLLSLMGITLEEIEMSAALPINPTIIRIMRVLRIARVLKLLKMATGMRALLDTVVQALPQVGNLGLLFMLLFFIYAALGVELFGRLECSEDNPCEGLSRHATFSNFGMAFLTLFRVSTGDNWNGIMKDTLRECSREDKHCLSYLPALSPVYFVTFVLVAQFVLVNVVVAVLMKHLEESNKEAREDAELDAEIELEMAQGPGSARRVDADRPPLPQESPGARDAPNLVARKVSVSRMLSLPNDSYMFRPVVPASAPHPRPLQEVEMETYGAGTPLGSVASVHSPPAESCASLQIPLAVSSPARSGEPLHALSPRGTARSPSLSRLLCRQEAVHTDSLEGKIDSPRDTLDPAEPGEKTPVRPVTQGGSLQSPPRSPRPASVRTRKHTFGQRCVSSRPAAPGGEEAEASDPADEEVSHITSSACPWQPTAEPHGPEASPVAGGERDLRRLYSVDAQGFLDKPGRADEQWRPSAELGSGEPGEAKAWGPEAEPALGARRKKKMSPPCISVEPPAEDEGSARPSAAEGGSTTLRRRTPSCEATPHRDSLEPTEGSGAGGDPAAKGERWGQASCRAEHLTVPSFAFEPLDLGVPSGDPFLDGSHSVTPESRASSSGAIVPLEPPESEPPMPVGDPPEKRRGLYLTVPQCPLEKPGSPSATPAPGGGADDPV

[9] = molecular target: DNA dC->dU-editing enzyme APOBEC-3A (Homo sapiens, UniProt P31941); experiment: A3A deaminase inhibition for selectivity – biochemical, dose response (AID 504722); assay type: functional
DNA dC->dU-editing enzyme APOBEC-3A, sequence (P31941 whole entry): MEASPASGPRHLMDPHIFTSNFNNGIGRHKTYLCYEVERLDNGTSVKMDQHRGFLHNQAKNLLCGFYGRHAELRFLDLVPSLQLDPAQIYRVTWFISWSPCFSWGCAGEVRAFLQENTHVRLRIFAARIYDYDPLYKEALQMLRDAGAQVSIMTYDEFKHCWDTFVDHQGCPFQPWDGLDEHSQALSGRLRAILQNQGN

[10] = molecular target: DNA dC->dU-editing enzyme APOBEC-3G (Homo sapiens, UniProt Q9HC16); experiment: Dose Response confirmation of small molecule APOBEC3G DNA Deaminase Inhibitors via a fluorescence-based single-stranded DNA deaminase assay. [Related pubchem assays (depositor defined):AID493012, AID493028]; assay type: functional
DNA dC->dU-editing enzyme APOBEC-3G, sequence (Q9HC16 whole entry): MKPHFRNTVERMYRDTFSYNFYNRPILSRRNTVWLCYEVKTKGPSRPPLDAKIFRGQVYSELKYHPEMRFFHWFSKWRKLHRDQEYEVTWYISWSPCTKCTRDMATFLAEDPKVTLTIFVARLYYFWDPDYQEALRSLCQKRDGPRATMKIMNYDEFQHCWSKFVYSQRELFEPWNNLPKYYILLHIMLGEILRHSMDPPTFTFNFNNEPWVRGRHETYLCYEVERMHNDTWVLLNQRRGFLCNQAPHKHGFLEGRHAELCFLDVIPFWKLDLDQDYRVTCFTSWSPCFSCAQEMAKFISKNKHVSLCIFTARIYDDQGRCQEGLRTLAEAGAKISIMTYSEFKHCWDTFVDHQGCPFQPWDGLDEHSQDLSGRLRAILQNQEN

Large T antigen = Large T antigen (Simian virus 40, UniProt P03070); assay type: functional, Betapolyomavirus macacae;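 note: Confirmatory-stage PubChem screen for compounds that inhibit SV40 T antigen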
Large T antigen, sequence (P03070 whole entry): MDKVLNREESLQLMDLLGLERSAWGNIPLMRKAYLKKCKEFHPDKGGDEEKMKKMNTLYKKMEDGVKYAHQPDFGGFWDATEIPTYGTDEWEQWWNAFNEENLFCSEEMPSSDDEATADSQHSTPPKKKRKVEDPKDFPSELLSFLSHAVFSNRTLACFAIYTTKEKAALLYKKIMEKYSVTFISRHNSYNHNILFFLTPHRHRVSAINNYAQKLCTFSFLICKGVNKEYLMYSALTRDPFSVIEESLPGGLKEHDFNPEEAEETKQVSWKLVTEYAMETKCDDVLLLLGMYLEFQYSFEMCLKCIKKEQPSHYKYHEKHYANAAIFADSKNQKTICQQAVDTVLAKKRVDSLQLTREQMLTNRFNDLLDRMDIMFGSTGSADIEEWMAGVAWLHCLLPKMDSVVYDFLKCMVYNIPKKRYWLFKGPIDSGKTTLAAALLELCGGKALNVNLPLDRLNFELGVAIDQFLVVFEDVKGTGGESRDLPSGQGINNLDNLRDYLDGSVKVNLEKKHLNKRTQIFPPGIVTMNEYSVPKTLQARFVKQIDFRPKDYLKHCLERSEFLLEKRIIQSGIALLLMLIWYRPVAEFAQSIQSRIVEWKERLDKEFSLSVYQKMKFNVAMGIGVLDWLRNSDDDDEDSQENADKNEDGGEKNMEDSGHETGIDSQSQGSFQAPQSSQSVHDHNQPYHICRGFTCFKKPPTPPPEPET

[11] = molecular target: FAD-linked sulfhydryl oxidase ALR (Homo sapiens, UniProt P55789); experiment: ALR-catalysed DTT oxidation blockers – biochemical, H2O2 detection, luminescence, cherry-pick, dose response (AID 493248)
FAD-linked sulfhydryl oxidase ALR, sequence (P55789 whole entry): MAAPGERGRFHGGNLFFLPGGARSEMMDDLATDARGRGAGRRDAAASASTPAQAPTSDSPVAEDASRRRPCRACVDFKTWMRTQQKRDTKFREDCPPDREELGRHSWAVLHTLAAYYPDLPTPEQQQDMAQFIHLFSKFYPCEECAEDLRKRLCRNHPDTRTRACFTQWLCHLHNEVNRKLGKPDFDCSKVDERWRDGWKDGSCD

[12] = molecular target: T6, Heat shock factor protein 1 (Mus musculus, UniProt P38532); experiment: decrease of HSF1-responsive luciferase luminescence – cell-based, NIH3T3, dose retest, confirmation (AID 2382); assay type: functional;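 note: NIH3T3 fibroblasts with HSF1-driven luciferase reporter stressed by proteasome inhibitor MG132; luminescence from HSF1-driven luciferase expression after 8 hours of MG132 stress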
T6 sequence (P38532 whole entry): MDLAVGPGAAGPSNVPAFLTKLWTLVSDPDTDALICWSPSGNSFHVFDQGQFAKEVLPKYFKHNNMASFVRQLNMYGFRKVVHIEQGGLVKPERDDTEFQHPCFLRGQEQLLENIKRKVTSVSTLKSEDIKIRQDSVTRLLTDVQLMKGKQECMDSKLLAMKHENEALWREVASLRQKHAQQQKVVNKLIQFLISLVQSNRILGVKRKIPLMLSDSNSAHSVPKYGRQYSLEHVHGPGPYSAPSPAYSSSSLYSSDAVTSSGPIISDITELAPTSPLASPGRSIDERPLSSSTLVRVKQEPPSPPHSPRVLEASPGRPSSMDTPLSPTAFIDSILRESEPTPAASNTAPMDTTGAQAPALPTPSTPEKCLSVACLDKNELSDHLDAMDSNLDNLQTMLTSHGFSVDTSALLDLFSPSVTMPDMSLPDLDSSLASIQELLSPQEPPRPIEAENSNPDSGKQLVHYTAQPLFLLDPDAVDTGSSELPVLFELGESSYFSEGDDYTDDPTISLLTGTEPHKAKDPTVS

Escherichia coli = experiment: microbe, parasite or virus in culture

Compound: Cn1cccc1C(C#N)c1cccc(F)c1C#N (stereo unspecified)
AC50 [1]: 4.57 µM (active)

Compound: Fc1cccc(C2NCCc3[nH]cnc32)c1 (stereo unspecified)
EC50 [2]: 3.76 µM (active)

EC50 [2]: 0.149 µM (active)
Compound: COc1ccc2[nH]c(SCCN(C)C)nc2c1

IC50 (Estrogen receptor beta [3]): 85.5 µM (not active)
EC50 (Troponin, cardiac muscle): 2.02 µM (active)
IC50 (Estrogen receptor): 33.3 µM (not active)
IC50 (Estrogen receptor beta [4]): 12.7 µM (active)
Compound: COc1ccc(NC2=NC(=O)S/C2=C\c2ccc(N(C)C)cc2)cc1

IC50 [5]: 13.8 µM (active)
Compound: Cc1c(NC(=O)CSc2nnc(C(C)Oc3ccc(Cl)cc3)n2-c2ccccc2)c(=O)n(-c2ccccc2)n1C (stereo unspecified)

Compound: N=c1n(Cc2ccccc2)c2ccccc2n1CC(O)COc1ccccc1 (stereo unspecified)
EC50 [6]: 6.96 µM (active)
IC50 [5]: 9.78 µM (active)
EC50 [2]: 0.267 µM (active)
EC50 [7]: 9.02 µM (active)
EC50 [8]: 2.6 µM (active)

Compound: O=c1c2c3c(sc2n2c(S)nnc2n1-c1ccccc1)CCC3
IC50 [9]: > 100 µM (inactive)
IC50 [10]: 3.72 µM (active)
IC50 (Large T antigen): 30.4 µM (active)

Compound: Cn1c(S)nnc1-c1sc2ccccc2c1Cl
IC50 [9]: > 100 µM (inactive)
IC50 [5]: 8.32 µM (active)
AC50 [11]: 12 µM (active)
IC50 [10]: 0.936 µM (active)

IC50 [5]: 19.1 µM (active)
EC50 [8]: 6.13 µM (active)
Compound: C=CCc1ccc(OCC(O)CN2CCC(Cc3ccccc3)CC2)c(OC)c1 (stereo unspecified)

EC50 (Troponin, cardiac muscle): > 71.5 µM (inactive)
Compound: O=C(Cn1cnc2c(cnn2-c2ccccc2)c1=O)Nc1ccc(S(=O)(=O)N2CCOCC2)cc1

Compound: O=C(/C=C/c1cccs1)c1cc(Cl)ccc1O
AC50 [1]: 4.67 µM (active)

Compound: CCOC(=O)CSc1cc(CS(C)(=O)=O)nc(-c2ccccn2)n1
EC50 [12]: > 195 µM (not active)
AC50 (Escherichia coli): 56.8 µM (active)

EC50 [2]: 3.35 µM (active)
Compound: COc1c(C)cc(C(=O)C2CCCN(Cc3cccc4nccnc34)C2)cc1C (stereo unspecified)

Compound: O=[N+]([O-])c1ccc(N2CCCC2)nc1
AC50 [1]: 5.4 µM (active)

EC50 (Troponin, cardiac muscle): > 71.4 µM (inactive)
Compound: O=C(c1cnc2ccccc2n1)N1CCN(c2ccc(C(F)(F)F)cn2)CC1

Compound: COc1ccc2c(c1)c(C(O)CN1CCC(Cc3ccccc3)CC1)c(C)n2C (stereo unspecified)
AC50 (Escherichia coli): 73.6 µM (active)

Compound: CCCNS(=O)(=O)c1ccc(OC)c(Cl)c1Cl
AC50 [1]: 8.91 µM (active)

From ChEMBL document CHEMBL1201862, “PubChem BioAssay data set” (2004)
